This passage reports Eggshell strength and Solubilities in water results from patent publication US8808728B2, “Feed additive for laying hen and feed containing the same” (Unitika Ltd., priority 2004, dated 2014).

Like-named read-outs stand apart in the source and are kept apart here.

Data set [1] deals with laying hens. Nature of the data set: Test Example 4: feeding of feeds of Examples 12 to 14 to laying hens aged 500 days for 60 days. The format is in vivo. The following applies: Boris Brown hens aged 500 days, fed 60 days. Here is the method: (§1) Ten laying hens aged 470 days (laying white leghorn hens (Julia)) were fed with each of the feeds prepared in Examples 2 to 5 for 60 days and the egg-laying rate, the egg breakage and egg cracking rate and eggshell strength were measured. The egg-laying rate was determined in accordance with the following Equation 1, while the egg breakage and egg cracking rate were determined in accordance with the following Equation 2. Eggshell strength was determined by horizontally placing an egg and measuring the bursting strength with a rheometer. A feed containing no feed additive for laying hens was also prepared as a control. […] Egg-laying rate=(total number of eggs in each test lot/total number of eggs in control lot)×100 [Equation 1] Egg breakage/cracking rate=(number of broken or cracked eggs/total number of eggs yield)×100 [Equation 2]
Four laying hens aged 500 days (Boris Brown) were fed with each of the feeds prepared in Examples 12 to 14 for 60 days and the egg-laying rate and the eggshell strength were measured in the same manner as in Examples 2 to 5. […]

Data set [2] can be described thus: Solubility in water of calcium salts. In kind it is physicochemical. The source says:
The solubility in water of the calcium lactobionate thus obtained was compared with those of other calcium salts (manufactured by Wako Pure Chemical Industries).

The test system of data set [3] is laying hens. In kind it is in vivo. The following applies: feed without calcium carbonate and di-lime phosphate; hens aged 470 days, fed 60 days. The method, then:
as §1
Ten laying hens aged 470 days (laying white leghorn hens (Julia)) were fed with each of the feeds prepared in Examples 10 and 11 for 60 days and the egg-laying rate, the egg breakage and egg cracking rate and eggshell strength were measured in the same manner as in Examples 2 to 5. […]

For `O=C([O-])[C@H](O)[C@@H](O)[C@H](O[C@@H]1O[C@H](CO)[C@H](O)[C@H](O)[C@H]1O)[C@H](O)CO.O=C([O-])[C@H](O)[C@@H](O)[C@H](O[C@@H]1O[C@H](CO)[C@H](O)[C@H](O)[C@H]1O)[C@H](O)CO.[Ca+2]` [Ca lactobionate, calcium lactobionate], the Eggshell strength entry in the data set with laying hens [1] is “eggshell reinforcing effect could be obtained”; in the data set with laying hens [3], “showed an effect of reinforcing eggshells”. Further, the Solubilities in water in data set [2] is on record as over 40 g/100 mL.

Consider `O=C([O-])[C@H](O)[C@@H](O)[C@H](O)[C@H](O)CO.O=C([O-])[C@H](O)[C@@H](O)[C@H](O)[C@H](O)CO.[Ca+2]` [Ca gluconate, reference compound], for which the Solubilities in water in data set [2] (water) is given as 3.8 g/100 mL.
